# Test results as given in patent publication US9765065B2, “Therapeutic substituted cyclopentanes” (ALLERGAN, INC., priority 2007, dated 2017).
# Assays:
# hTP = target: T1, hTP (Homo sapiens, UniProt P21731); assay: Other receptors hTP; assay type: cell-based
# T1 sequence (P21731 1-343): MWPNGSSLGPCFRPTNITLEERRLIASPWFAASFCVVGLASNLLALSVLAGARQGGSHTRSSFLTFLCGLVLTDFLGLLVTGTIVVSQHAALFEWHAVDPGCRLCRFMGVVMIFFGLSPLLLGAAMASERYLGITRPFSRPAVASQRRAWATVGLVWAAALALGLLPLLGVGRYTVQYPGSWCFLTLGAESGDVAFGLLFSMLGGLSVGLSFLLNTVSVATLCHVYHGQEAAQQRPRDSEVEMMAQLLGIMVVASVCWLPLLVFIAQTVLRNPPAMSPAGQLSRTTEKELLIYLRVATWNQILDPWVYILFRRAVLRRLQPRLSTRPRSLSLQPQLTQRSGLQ
# Description: (§1) U.S. patent application Ser. No. 11/553,143, filed on Oct. 26, 2006, incorporated by reference herein in its entirety, describes the methods used to obtain the in vitro data in the table below.
# hEP3A = target: T2, hEP3A (Homo sapiens, UniProt P43115); assay: Other receptors hEP3A; assay type: cell-based
# T2 sequence (P43115 1-390): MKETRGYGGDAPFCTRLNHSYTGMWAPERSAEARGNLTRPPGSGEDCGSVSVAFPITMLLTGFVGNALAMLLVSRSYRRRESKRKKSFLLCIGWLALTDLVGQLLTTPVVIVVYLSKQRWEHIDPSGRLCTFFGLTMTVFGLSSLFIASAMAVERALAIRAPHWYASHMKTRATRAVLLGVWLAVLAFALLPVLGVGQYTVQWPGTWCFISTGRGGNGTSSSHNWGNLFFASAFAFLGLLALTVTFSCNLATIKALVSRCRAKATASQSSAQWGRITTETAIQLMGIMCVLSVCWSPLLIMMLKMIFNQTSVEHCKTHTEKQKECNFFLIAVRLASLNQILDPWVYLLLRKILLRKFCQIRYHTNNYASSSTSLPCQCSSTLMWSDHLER
# Description: as §1
# EP2 [1] = target: T3, EP2 (Homo sapiens, UniProt P43116); assay: EP2 cAMP; assay type: cell-based
# T3 sequence (P43116 whole entry): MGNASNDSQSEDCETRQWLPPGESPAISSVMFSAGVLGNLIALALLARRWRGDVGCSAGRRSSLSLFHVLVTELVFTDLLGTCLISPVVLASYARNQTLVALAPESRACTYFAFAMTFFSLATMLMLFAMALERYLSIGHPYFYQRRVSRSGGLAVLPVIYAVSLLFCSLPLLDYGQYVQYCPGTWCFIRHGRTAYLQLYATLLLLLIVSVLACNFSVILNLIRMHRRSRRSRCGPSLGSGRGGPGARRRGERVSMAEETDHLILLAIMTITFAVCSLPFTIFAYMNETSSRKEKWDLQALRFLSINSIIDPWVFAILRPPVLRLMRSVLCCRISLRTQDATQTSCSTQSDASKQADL
# Description: as §1
# EP2 [2] = target: T3, EP2; assay: EP2 flipr; assay type: cell-based
# Description: as §1
# EP4 [3] = target: T4, EP4 (Homo sapiens, UniProt P35408); assay: EP4 binding Ki
# T4 sequence (P35408 whole entry): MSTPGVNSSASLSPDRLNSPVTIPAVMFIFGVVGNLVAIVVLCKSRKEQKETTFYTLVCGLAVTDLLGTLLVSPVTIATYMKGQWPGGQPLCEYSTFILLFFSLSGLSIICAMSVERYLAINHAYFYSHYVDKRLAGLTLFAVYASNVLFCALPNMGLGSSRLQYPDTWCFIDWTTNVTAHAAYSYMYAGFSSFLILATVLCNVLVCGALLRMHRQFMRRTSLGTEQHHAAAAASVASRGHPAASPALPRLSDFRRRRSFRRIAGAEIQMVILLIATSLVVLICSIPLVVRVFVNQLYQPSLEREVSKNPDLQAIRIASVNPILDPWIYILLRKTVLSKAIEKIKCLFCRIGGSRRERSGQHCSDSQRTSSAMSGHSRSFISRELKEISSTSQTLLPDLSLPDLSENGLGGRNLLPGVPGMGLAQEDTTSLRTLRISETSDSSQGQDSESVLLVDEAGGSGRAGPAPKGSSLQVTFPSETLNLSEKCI
# Description: as §1
# EP4 [4] = target: T4, EP4; assay: EP4 flipr; assay type: cell-based
# Description: as §1
# EP2 [5] = target: T3, EP2; assay: EP2 binding Ki
# Description: as §1
# hDP = target: T5, hDP (Homo sapiens, UniProt Q13258); assay: Other receptors hDP; assay type: cell-based
# T5 sequence (Q13258 1-359): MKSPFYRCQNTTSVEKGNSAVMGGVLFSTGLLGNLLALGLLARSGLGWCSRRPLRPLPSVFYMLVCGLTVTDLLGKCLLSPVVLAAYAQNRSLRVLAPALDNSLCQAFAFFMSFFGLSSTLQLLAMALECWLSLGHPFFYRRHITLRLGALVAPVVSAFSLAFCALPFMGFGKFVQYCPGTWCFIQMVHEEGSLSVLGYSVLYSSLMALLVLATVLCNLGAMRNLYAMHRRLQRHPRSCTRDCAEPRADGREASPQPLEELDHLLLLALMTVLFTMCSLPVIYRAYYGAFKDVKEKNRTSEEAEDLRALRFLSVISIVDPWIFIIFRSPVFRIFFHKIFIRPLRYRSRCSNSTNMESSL
# Description: as §1
Compound,EC50 (hTP) [nM],EC50 (hEP3A) [nM],EC50 (EP2 [1]) [nM],EC50 (EP2 [2]) [nM],Ki (EP4 [3]) [nM],EC50 (EP4 [4]) [nM],Ki (EP2 [5]) [nM],EC50 (hDP) [nM]
"O=C(O)c1ccc(C=CC[C@@H]2[C@@H](C=Cc3cc(Cl)cc(Cl)c3)[C@H](O)C[C@H]2Cl)s1 [Example 1, 5-(3-((1R,2R,3R,5R)-5-chloro-2-(3,5-dichlorostyryl)-3-hydroxycyclopentyl)prop-1-enyl)thiophene-2-carboxylic acid]",> 10000,> 10000,0.2,37,440,> 10000,2.2,–
"O=C(O)c1ccc(CCC[C@@H]2[C@@H](/C=C/c3cc(Cl)cc(CO)c3)[C@H](O)C[C@H]2Cl)s1 [Example 2, 5-(3-((1R,2R,3R,5R)-5-chloro-2-(3-chloro-5-(hydroxymethyl)styryl)-3-hydroxycyclopentyl)propyl)-thiophene-2-carboxylic acid]",–,–,0.13,85,135,> 10000,2,> 10000
"O=C(O)c1ccc(CCC[C@@H]2[C@@H](/C=C\c3cc(Cl)nc(Cl)c3)[C@H](O)C[C@H]2Cl)s1 [Example 5, 5-(3-((1R,2R,3R,5R)-5-chloro-2-((Z)-2-(2,6-dichloropyridin-4-yl)vinyl)-3-hydroxycyclopentyl)propyl)-thiophene-2-carboxylic acid]",–,–,3,458,1990,1920,38,2100
"O=C(O)c1ccc(CCC[C@@H]2[C@@H](/C=C/c3cc(F)cc(F)c3)[C@H](O)C[C@H]2Cl)s1 [Example 6, 5-(3-((1R,2R,3R,5R)-5-chloro-2-((E)-3,5-difluorostyryl)-3-hydroxycyclopentyl)propyl)thiophene-2-carboxylic acid]",65300,–,0.3,22,878,> 10000,7,–
"O=C(O)c1ccc(CCC[C@@H]2[C@@H](/C=C\c3cc(F)cc(F)c3)[C@H](O)C[C@H]2Cl)s1 [Example 7, 5-(3-((1R,2R,3R,5R)-5-chloro-2-((Z)-3,5-difluorostyryl)-3-hydroxycyclopentyl)propyl)thiophene-2-carboxylic acid]",95,–,207,7140,3220,–,425,6370
"Cc1cccc(/C=C/[C@@H]2[C@@H](CCCc3ccc(C(=O)O)s3)[C@H](Cl)C[C@H]2O)c1 [Example 12, 5-(3-((1R,2R,3R,5R)-5-chloro-3-hydroxy-2-(3-methylstyryl)cyclopentyl)propyl)thiophene-2-carboxylic acid]",3760,9880,0.1,17,144,16900,2,12300
"O=C(O)c1csc(SCC[C@@H]2[C@@H](/C=C/c3cc(Cl)cc(Cl)c3)[C@H](O)C[C@H]2Cl)n1 [Example 14, 2-(2-((1R,2R,3R,5R)-5-chloro-2-(3,5-dichlorostyryl)-3-hydroxycyclopentyl)ethylthio)thiazole-4-carboxylic acid]",–,3880,0.04,7,616,3460,1.2,–
"O=C(O)c1ccc(CCC[C@H]2C(=O)C[C@@H](O)[C@@H]2C#Cc2ccccc2)s1 [Example 17, 5-(3-((1R,2S,3R)-3-hydroxy-5-oxo-2-(phenylethynyl)cyclopentyl)propyl)thiophene-2-carboxylic acid]",–,11000,0.05,9,700,33800,5,–
"O=C(O)c1ccc(CCC[C@@H]2[C@@H](C#Cc3ccccc3)[C@H](O)C[C@H]2F)s1 [Example 19, 5-(3-((1R,2S,3R,5R)-5-fluoro-3-hydroxy-2-(phenylethynyl)cyclopentyl)propyl)thiophene-2-carboxylic acid]",–,> 10000,0.23,349,1020,26600,4,–
"N#C[C@@H]1C[C@@H](O)[C@H](C#Cc2ccccc2)[C@H]1CCCc1ccc(C(=O)O)s1 [Example 22, 5-(3-((1S,2S,3R,5R)-5-cyano-3-hydroxy-2-(phenylethynyl)cyclopentyl)propyl)thiophene-2-carboxylic acid]",–,> 10000,0.18,235,587,21200,13,–
"O=C(O)c1ccc(CCC[C@@H]2[C@@H](C#Cc3cccs3)[C@H](O)C[C@H]2Cl)s1 [Example 28, 5-(3-((1R,2S,3R,5R)-5-chloro-3-hydroxy-2-(thiophen-2-ylethynyl)cyclopentyl)propyl)thiophene-2-carboxylic acid]",–,6520,0.8,–,825,5880,10,18300
"O=C(O)c1csc(SCC[C@@H]2[C@@H](C#Cc3cc(Cl)cc(Cl)c3)[C@H](O)C[C@H]2Cl)n1 [Example 34, 2-(2-((1R,2S,3R,5R)-5-chloro-2-((3,5-dichlorophenyl)ethynyl)-3-hydroxycyclopentyl)ethylthio)thiazole-4-carboxylic acid]",–,2880,0.16,–,60,3.3,1.5,14800
"O=C(O)c1csc(SCC[C@@H]2[C@@H](C#Cc3ccccc3)[C@H](O)C[C@H]2Cl)n1 [Example 35, 2-(2-((1R,2S,3R,5R)-5-chloro-3-hydroxy-2-(phenylethynyl)cyclopentyl)ethylthio)thiazole-4-carboxylic acid]",–,1500,0.08,–,463,10,5,1030
